Measured values as given in patent publication US20240182436A1, “SUBSTITUTED SULFONAMIDE-CHROMAN COMPOUNDS, AND PHARMACEUTICAL COMPOSITIONS, AND METHODS OF USE THEREOF” (priority 2021, published 2024).

Tested on: Harmaline-induced tremor
Assay: Harmaline-induced Tremor Model
Type: in vivo
Conditions: adult male CD1 mice, test article 30 mg/kg i.p., harmaline 30 mg/kg i.p.; for inhibition in vivo at 30 mg/kg: Mus musculus, ip, read-out: Tremor Suppression Activity (magnitude of tremor suppression in percent compared to vehicle)
Excerpt: Harmaline-induced Tremor: Harmaline-induced tremor is widely recognized as an animal model of Essential Tremor (ET). Following acute administration, harmaline produces an 8-16 Hz tremor in rodents, cats, and monkeys that, like ET, is postural and kinetic, involving appendicular and axial musculature (Handforth, A. (2012). Harmaline tremor: underlying mechanisms in a potential animal model of essential tremor. Tremor and Other Hyperkinetic Movements (NY), 2, 02-92-769-1; Handforth, A. (2016). Linking Essential Tremor to the Cerebellum-Animal Model Evidence. Cerebellum, 15(3), 285-298; LeDoux, M. (2005). Harmaline tremor. In Movement Disorders. Elsevier Inc.; Louis, E. D. (2014). Re-thinking the biology of essential tremor: From models to morphology. Parkinsonism and Related Disorders, 20 (SUPPL.1), S88-S93). […] Clinical agents that suppress ET in patients are generally effective in the harmaline-induced tremor model (Handforth 2016). Following acute dosing of harmaline in mice, the tremor frequency (10-20 Hz) is typically recorded using an automated force plate-based system.
Procedure: Tremor activity was measured using a custom-made testing apparatus containing a piezoelectric sensing platform which was connected to an amplifier (A-M Systems model 1700). Adult male CD1 mice were brought to the experiment room for acclimatization 1 h prior to testing. Mice were first placed inside the testing apparatus for 10 min baseline habituation. After the initial habituation, mice were treated with vehicle (10 ml/kg) or test article (30 mg/kg, i.p.) and placed back in the apparatus for an additional 20 min baseline recording. Subsequently, animals were injected with harmaline (30 mg/kg, i.p.) and tremor activity was measured for 20 min. The electric signal of tremor activity was amplified at a sampling rate of 512 Hz with a multichannel amplifier and then acquired, quantized, and digitized by a data acquisition unit (CED Micro 1401). The software Spike2 (v 7.07, Cambridge Electronic Design, Cambridge, UK) was used to analyze the tremor signal by performing Fourier transformation of the data into frequency spectra. Changes in absolute power were expressed relative to each animal's 20-min baseline for the frequencies of 10-20 Hz. Comparisons between treatment and respective vehicle groups were assessed with two-tailed, Student's t-test. The level of statistical significance was defined as p<0.05 (see, e.g., Table 2.1) The magnitude of tremor suppression in percent compared to vehicle is shown in Table 2.2.
A tremor suppression score was defined as the magnitude of tremor suppression in percent compared to vehicle: ≤24% (D), 25-55% (C), 56-70% (B) and 71-100% (A). Not tested (---).

Structure (SMILES) | inhibition in vivo at 30 mg/kg | Tremor Suppression Activity (magnitude of tremor suppression in percent compared to vehicle)
C[C@H]1COc2ccc(F)cc2[C@H]1CS(N)(=O)=O (relative stereo) [Compound 53, ((3R*,4S*)-6-fluoro-3-methylchroman-4-yl)methanesulfonamide] | 25 to 55% | 
C[C@@H]1COc2cc(F)ccc2[C@H]1NS(N)(=O)=O (relative stereo) [Compound 76, (3(S*),4(S*))-7-fluoro-3-methyl-4-(sulfamoylamino)-3,4-dihydro-2(H)-chromene] | 56 to 70% | 
NS(=O)(=O)CC1CC2(CC2)Oc2cc(F)ccc21 (single isomer, unassigned) [Compound 1, (S*)-(7-fluorospiro[chromane-2,1′-cyclopropan]-4-yl)methanesulfonamide] | 56 to 70% | 
NS(=O)(=O)CC1CC2(CC2)Oc2cc(F)ccc21 (single isomer, unassigned) [Compound 2, (R*)-(7-fluorospiro[chromane-2,1′-cyclopropan]-4-yl)methanesulfonamide] |  | A (71-100% (A))
NS(=O)(=O)CC1CC2(CCC2)Oc2cc(F)ccc21 (single isomer, unassigned) [Compound 3, (S*)-(7-fluorospiro[chromane-2,1′-cyclobutan]-4-yl)methane-sulfonamide] |  | C (25-55% (C))
NS(=O)(=O)CC1CC2(CCC2)Oc2cc(F)ccc21 (single isomer, unassigned) [Compound 4, (R*)-(7-fluorospiro[chromane-2,1′-cyclobutan]-4-yl)methane-sulfonamide] |  | B (56-70% (B))
CC1(C)CC(CS(N)(=O)=O)c2cc(F)c(F)cc2O1 (single isomer, unassigned) [Compound 5, (S*)-(6,7-difluoro-2,2-dimethylchroman-4-yl)methanesulfonamide] |  | C (25-55% (C))
CC1(C)CC(CS(N)(=O)=O)c2cc(F)c(F)cc2O1 (single isomer, unassigned) [Compound 6, (R*)-(6,7-difluoro-2,2-dimethylchroman-4-yl)methanesulfonamide] |  | A (71-100% (A))
NS(=O)(=O)CC1CCOc2c1ccc(F)c2F (single isomer, unassigned) [Compound 15, (S*)-(7,8-difluorochroman-4-yl)methanesulfonamide] |  | C (25-55% (C))
NS(=O)(=O)CC1CCOc2c1ccc(F)c2F (single isomer, unassigned) [Compound 16, (R*)-(7,8-difluorochroman-4-yl)methanesulfonamide] |  | B (56-70% (B))
NS(=O)(=O)CC1CCOc2cc(F)cc(F)c21 (single isomer, unassigned) [Compound 17, (S*)-(5,7-difluorochroman-4-yl)methanesulfonamide] | 56 to 70% | 
NS(=O)(=O)C1(C2CCOc3cc(F)ccc32)CC1 (single isomer, unassigned) [Compound 27, (S*)-1-(7-fluorochroman-4-yl)cyclopropane-1-sulfonamide] | ≤ 24% | 
NS(=O)(=O)C1(C2CCOc3cc(F)ccc32)CC1 (single isomer, unassigned) [Compound 28, (R*)-1-(7-fluorochroman-4-yl)cyclopropane-1-sulfonamide] |  | C (25-55% (C))
NS(=O)(=O)CC1CCOc2cc(F)c(F)cc21 (single isomer, unassigned) [Compound 29, (S*)-(6,7-difluorochroman-4-yl)methanesulfonamide] | 56 to 70% | 
NS(=O)(=O)CC1CCOc2cc(F)c(F)cc21 (single isomer, unassigned) [Compound 30, (R*)-(6,7-difluorochroman-4-yl)methanesulfonamide] |  | A (71-100% (A))
